Assay results from patent US20240317748A1, “CARBONYL SUBSTITUTED DIAZASPIRO COMPOUNDS AND ITS USE” (BIONOVA PHARMACEUTICALS (SHANGHAI) LIMITED, priority 2021, published 2024).

Columns and labels:
Menin-MLL1 = target: T1, Menin-MLL1 (Homo sapiens, UniProt O00255); experiment: Menin-MLL1 inhibition assay (fluorescence polarization, Menin protein + FAM-MLL peptide); type: binding; conditions: Menin (2-610) isoform 2, FAM-labelled MLL peptide, mP readout; read-out: Biochemical assay Menin-MLL1 IC50
T1 construct: Menin (2-610) isform2; purchased ChemPartner 2020111101
T1 sequence (O00255 2-610): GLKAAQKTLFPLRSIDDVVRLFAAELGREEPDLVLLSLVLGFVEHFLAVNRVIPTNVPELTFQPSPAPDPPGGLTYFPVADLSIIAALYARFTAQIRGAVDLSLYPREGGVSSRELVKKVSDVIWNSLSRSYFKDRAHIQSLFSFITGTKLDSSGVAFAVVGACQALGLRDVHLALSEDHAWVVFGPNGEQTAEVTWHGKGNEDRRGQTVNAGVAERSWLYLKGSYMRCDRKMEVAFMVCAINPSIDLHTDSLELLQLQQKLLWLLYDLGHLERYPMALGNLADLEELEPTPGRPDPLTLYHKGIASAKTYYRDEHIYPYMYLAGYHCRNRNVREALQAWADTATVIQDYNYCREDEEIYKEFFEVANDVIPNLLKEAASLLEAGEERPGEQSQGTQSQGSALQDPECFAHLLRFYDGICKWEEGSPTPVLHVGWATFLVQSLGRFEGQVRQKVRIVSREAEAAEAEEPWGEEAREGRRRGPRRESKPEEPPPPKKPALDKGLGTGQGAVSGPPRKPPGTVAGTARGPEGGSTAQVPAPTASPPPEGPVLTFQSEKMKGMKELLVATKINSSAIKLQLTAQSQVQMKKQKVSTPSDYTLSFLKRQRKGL

MV-4-11 cells = experiment: Cell proliferation assay (CellTiter-Glo), MV-4-11; type: cell-based, human; conditions: Homo sapiens, MV4-11, 96 h; MV-4-11 (MLL-AF4), 4 days incubation; read-out: Cell antiproliferation assay MV-4-11 IC50
Method in brief: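 Antiproliferative activity by CellTiter-Glo luminescence; MV4-11 (MLL-AF4) in IMDM/10% FBS, 4 days; MOLM13 (MLL-AF9) in RPMI1640/20% FBS, 12 days; OCI-AML3 (NPM1c) in RPMI1640/20% FBS, 5 days; HL-60 (MLL wild-type control) in IMDM/20% FBS, 4 days. Compounds 4-fold serial from 2 mM stock, 200-fold final dilution; 37 °C, 5% CO2.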

OCI-AML3 cells = experiment: Cell proliferation assay (CellTiter-Glo), OCI-AML3; type: cell-based, human; conditions: Homo sapiens, OCI-AML-3, 120 h; OCI-AML3 (NPM1c mutation), 5 days incubation; read-out: Cell antiproliferation assay OCI-AML3 IC50
Procedure: (§1) The antiproliferative activity of test compounds was assessed in human leukemia cell lines. The cell line MV4-11, MOLM13 and OCI-AML3, which expresses the MLL fusion protein MLL-AF4, MLL-AF9 and carry the NPM1c gene mutation, respectively, were tested. HL-60 was used as a control cell line containing two MLL wildtype alleles in order to exclude compounds that display general cytotoxic effect. MV4-11 cells were cultured in IMDM supplemented with 10% FBS, MOLM13 and OCI-AML3 cells were cultured in RPMI1640 supplemented with 20% FBS, and HL-60 cells were cultured in IMDM supplemented with 20% FBS. Corresponding cells (MV4-11, MOLM13, OCI-AML3 or HL-60 cell line) were seeded in 100 uL medium per well in 96-well plate (white wall with clear bottom, tissue culture treated, Corning, Cat. No. CLS3903; Lot.No. 30419025). Plates were placed in the CO2 incubator overnight. Compounds solution (2 mM starting, 4-fold serial dilution) were prepared and added to the wells containing 100 μL of the culture medium with HPD300 according to the plate map and centrifuge at 1000 rpm for 1 minutes (200-fold dilution totally). MV4-11, MOLM13, OCI-AML3 and HL-60 cells were incubated with the compounds for 4, 12, 5 and 4 days, respectively, under 5% CO2 at 37° C., respectively. 100 μL of CellTiter-Glo reagent (Promega, Cat. No. G7573, Lot. No. 0000416710) was added to the assay plate by Multidrop Combi instrument, contents were mixed for 10 minutes on an orbital shaker to induce cell lysis. After incubation at room temperature for 10 mins, clear bottom with white back seal was pasted and luminescence with Envision was read.

MOLM13 cells = experiment: Cell proliferation assay (CellTiter-Glo), MOLM13; type: cell-based, human; conditions: Homo sapiens, MOLM-13, 288 h; MOLM13 (MLL-AF9), 12 days incubation; read-out: Cell antiproliferation assay MOLM13 IC50
Procedure: as §1

HL-60 cells = experiment: Cell proliferation assay (CellTiter-Glo), HL-60 control line; type: cell-based, human; conditions: Homo sapiens, 96 h, 4 days incubation; for IC50: HL-60 control line (MLL wildtype), read-out: Cell antiproliferation assay HL-60 IC50; for inhibition at 10 µM: HL-60 control line, read-out: HL-60 (Pct of inhibition at 10 μM)
Procedure: as §1

[1] = Liver microsome stability study; type: in vitro ADME; conditions: human liver microsomes 0.5 mg/mL, 1 μM compound, NADPH, 37° C.; read-out: Human liver microsome T1/2
Procedure: Studies were carried out in liver microsomes (Corning, 0.5 mg/mL). Stock solutions were prepared at 10 mM in DMSO for the test compounds. Aliquots of the stock solutions were diluted to 0.5 mM with acetonitrile, and then further diluted upon the addition of liver microsomes/buffer to 1.5 μM. An aliquot of 30 μL of 1.5 μM solutions was mixed with 15 μL of 6 mM NADPH and the final concentration of NADPH was 2 mM, which had been pre-warmed to 37° C. Test compounds and Ketanserin final concentrations were 1 μM. The plates were kept in a 37° C. water bath for the duration of the experiment. At each time point (0, 5, 15, 30, 45 minutes), 135 μL of acetonitrile was added into corresponding wells. After the final time point was quenched by acetonitrile, the assay plates were shaken at the vibrator (IKA, MTS 2/4) for 10 min (600 rpm/min) and then centrifuged at 5,594 g for 15 min (Thermo Multifuge×3R). Aliquots of the supernatant were taken, diluted 1:1 into distilled water, and analyzed by LC-MS/MS. The peak area response ratio to internal standard (PARR) of the compounds at 5, 15, 30, 45 minutes was compared to the PARR at time 0 to determine the percent of test compound remaining at each time point. Half-lives were calculated using Excel software, fitting to a single-phase exponential decay equation.

hERG potassium channel = target: T2, hERG potassium channel (Homo sapiens, UniProt Q12809); experiment: hERG inhibition study (Qpatch, CHO-hERG cells); type: cell-based; conditions: highest test concentration 40 μM
T2 construct: expressed in transfected cells; host or cells: CHO-hERG cells
T2 sequence (Q12809 whole entry): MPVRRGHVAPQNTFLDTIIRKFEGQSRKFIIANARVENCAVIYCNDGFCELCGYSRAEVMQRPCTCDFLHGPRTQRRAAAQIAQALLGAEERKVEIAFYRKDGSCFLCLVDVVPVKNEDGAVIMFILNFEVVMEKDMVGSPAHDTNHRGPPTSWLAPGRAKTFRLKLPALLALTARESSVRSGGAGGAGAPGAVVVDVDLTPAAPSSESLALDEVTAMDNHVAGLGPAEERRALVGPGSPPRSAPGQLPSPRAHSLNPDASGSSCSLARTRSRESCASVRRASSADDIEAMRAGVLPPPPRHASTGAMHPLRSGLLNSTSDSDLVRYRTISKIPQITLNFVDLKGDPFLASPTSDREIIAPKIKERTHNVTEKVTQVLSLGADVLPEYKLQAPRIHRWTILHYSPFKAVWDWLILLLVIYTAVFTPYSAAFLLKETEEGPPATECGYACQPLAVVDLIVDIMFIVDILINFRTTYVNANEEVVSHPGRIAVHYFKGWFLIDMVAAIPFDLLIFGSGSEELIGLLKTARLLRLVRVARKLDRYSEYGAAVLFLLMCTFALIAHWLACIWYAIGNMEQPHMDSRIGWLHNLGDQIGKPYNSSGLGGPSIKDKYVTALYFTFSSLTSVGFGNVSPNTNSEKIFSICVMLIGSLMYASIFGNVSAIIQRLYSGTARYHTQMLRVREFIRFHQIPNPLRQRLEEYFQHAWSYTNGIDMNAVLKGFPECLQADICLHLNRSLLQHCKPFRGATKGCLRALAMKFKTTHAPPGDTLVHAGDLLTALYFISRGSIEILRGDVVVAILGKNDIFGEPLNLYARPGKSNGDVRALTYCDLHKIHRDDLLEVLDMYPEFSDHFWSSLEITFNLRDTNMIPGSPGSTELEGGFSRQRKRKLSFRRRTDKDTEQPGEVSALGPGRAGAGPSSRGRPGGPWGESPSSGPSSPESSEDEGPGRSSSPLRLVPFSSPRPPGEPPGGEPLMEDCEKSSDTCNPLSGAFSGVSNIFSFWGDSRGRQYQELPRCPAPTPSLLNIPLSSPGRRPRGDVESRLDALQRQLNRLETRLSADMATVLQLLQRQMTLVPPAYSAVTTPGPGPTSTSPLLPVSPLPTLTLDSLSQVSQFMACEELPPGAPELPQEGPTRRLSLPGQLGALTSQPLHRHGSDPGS
Procedure: The inhibition effects of the test compounds on hERG were carried out in CHO-hERG cells (cell density: 21.5×10˜6/mL). 10 μL compound mother liquor was added to 20 μL DMSO solution, and then continuously diluted to 6 concentrations by 3-fold. The compound solution (4 uL) of six different concentrations were added to the extracellular solution (996 uL) and diluted to the final concentration to be tested (250-fold dilution totally). The highest test concentration was 40.00 μM, followed by […], 13.3, 4.4, 1.48, 0.49 and 0.16 μM. […] The high impedance sealing of single cell and the formation of whole cell model were all completed automatically by Qpatch instrument.

| IC50 (Menin-MLL1) [nM] | IC50 (MV-4-11 cells) [nM] | IC50 (OCI-AML3 cells) [nM] | IC50 (MOLM13 cells) [nM] | IC50 (HL-60 cells) [nM] | half-life at 1 μM [1] [h] | SMILES | inhibition at 10 µM (HL-60 cells) [%] | IC50 (hERG potassium channel) [nM] |
| --- | --- | --- | --- | --- | --- | --- | --- | --- |
| 5.3 | 13 | 144 | 57.8 | > 10000 | 1.75 | CCN(C(=O)c1cc(F)ccc1Oc1nncnc1N1CC2(CCN(C(=O)[C@H]3NCC[C@@H]3C)CC2)C1)C(C)C [Example 57] | -16.4 | > 40000 |
| 3.4 | 17.3 |  |  | > 10000 | 1.35 | C[C@H]1CCN[C@@H]1C(=O)N1CCC2(CC1)CN(c1ncnnc1Oc1ccc(F)cc1-c1cncnc1C1CC1)C2 [Example 77] | 17.5 | > 40000 |
| 3.4 | 39.5 |  |  | > 10000 | 1.43 | O=C([C@@H]1C[C@@H](F)CN1)N1CCC2(CC1)CN(c1ncnnc1Oc1ccc(F)cc1-c1cncnc1C1CC1)C2 [Example 62] | -9.1 |  |
| 4.9 | 134 |  |  |  | 1.53 | CCN(C(=O)c1cc(F)ccc1Oc1cncnc1N1CC2(CCN(C(=O)[C@]3(C)CCCN3)CC2)C1)C(C)C [Example 22] |  |  |
| 3.3 | 69 |  |  |  | 1 | CCN(C(=O)c1cc(F)ccc1Oc1cncnc1N1CC2(CN(C(=O)[C@@H]3C[C@@H](F)CN3)C2)C1)C(C)C [Example 38] |  |  |
| 4.3 | 20.3 | 102 | 62.4 | > 10000 |  | CCN(C(=O)c1cc(F)ccc1Oc1cncnc1N1CC2(CCN(C(=O)[C@@H]3C[C@@H](F)CN3)CC2)C1)C(C)C [Example 2, N-ethyl-5-fluoro-2-[(4-{7-[(2S,4R)-4-fluoropyrrolidine-2-carbonyl]-2,7-diazaspiro[3.5]nonan-2-yl}pyrimidin-5-yl)oxy]-N-(propan-2-yl)benzamide] | -30.1 | > 40000 |
| 4.9 | 41.6 |  |  |  | 1.1 | CCN(C(=O)c1cc(F)ccc1Oc1nncnc1N1CC2(CCN(C(=O)[C@@H]3C[C@H](C)CN3)CC2)C1)C(C)C [Example 87] |  |  |
| 4.4 | 56.4 |  |  |  | 2.57 | C[C@@H]1CCN[C@@H]1C(=O)N1CCC2(CC1)CN(c1ncnnc1Oc1ccc(F)cc1-c1cncnc1C1CC1)C2 [Example 69] |  |  |
| 4.2 | 43 |  |  | > 10000 | 1.57 | CCN(C(=O)c1cc(F)ccc1Oc1nncnc1N1CC2(CCN(C(=O)[C@@H]3C[C@@H](F)CN3)CC2)C1)C(C)C [Example 39, N-ethyl-5-fluoro-2-[(5-{7-[(2S,4R)-4-fluoropyrrolidine-2-carbonyl]-2,7-diazaspiro [3.5]nonan-2-yl}-1,2,4-triazin-6-yl)oxy]-N-(propan-2-yl) benzamide] | -24.9 |  |
| 5.1 | 20 | 67.1 | 60.9 | > 10000 | 1.13 | CCN(C(=O)c1cc(F)ccc1Oc1nncnc1N1CC2(CCN(C(=O)[C@H]3NCC[C@@H]3OC)CC2)C1)C(C)C [Example 84] | 15.1 |  |
| 3.1 | 15.1 |  | 57 | > 10000 | 1.12 | CCN(C(=O)c1cc(F)ccc1Oc1nncnc1N1CC2(CCN(C(=O)[C@H]3NCCC3(C)C)CC2)C1)C(C)C [Example 65] | -3.7 |  |
| 4.1 | 13.8 | 68.3 | 46.1 | > 10000 |  | CCN(C(=O)c1cc(F)ccc1Oc1nncnc1N1CC2(CCN(C(=O)[C@H]3NC[C@H]4[C@@H]3C4(C)C)CC2)C1)C(C)C (stereo in doubt) [Example 68] | 14.1 | > 40000 |
| 4.6 | 5.6 | 30.9 | 14.9 | > 10000 |  | CCN(C(=O)c1cc(F)ccc1Oc1nncnc1N1CC2(CCN(C(=O)[C@H]3NC[C@@H]4CCC[C@@H]43)CC2)C1)C(C)C [Example 74] | 7.9 | > 40000 |
| 4.5 | 40.1 |  |  | > 10000 | 1.98 | CCN(C(=O)c1cc(F)ccc1Oc1nncnc1N1CC2(CCN(C(=O)[C@@H]3C[C@@H](C)CN3)CC2)C1)C(C)C [Example 60] | -8.4 | > 40000 |
| 3.5 | 43.4 |  |  |  | 2.08 | CCN(C(=O)c1cc(F)ccc1Oc1nncnc1N1CC2(CCN(C(=O)[C@H]3NCC[C@H]3C)CC2)C1)C(C)C [Example 63] |  |  |
| 4.2 | 5.6 | 11.2 | 12.3 | > 10000 |  | O=C([C@H]1NC[C@@H]2CCC[C@@H]21)N1CCC2(CC1)CN(c1ncnnc1Oc1ccc(F)cc1-c1cncnc1C1CC1)C2 [Example 82] | 22.3 | 29400 |
